Patent publication US8609087B2, “Compounds and methods for identifying compounds which inhibit a new class of aspartyl proteases” (priority 1999, dated 2013)
“And” between values parts separate entries of the source, which are not always exact repeats. Equal entries are not always repeated. “Also recorded” adds a separate entry of the source. Square brackets hold non-standard residues; d marks the D form. Peptide text beside a SMILES is read from it. * marks the point of attachment. Sta = CC(C)C[C@H](N)[C@@H](O)CC(=O)O; Isovaleryl = CC(C)CC(=O)*; Nle = CCCC[C@H](N)C(=O)O

molecular target: TcpJ type 4 prepilin peptidase (TFPP) (Vibrio cholerae serotype O1, UniProt A5F385, P151Q/Q149P/S169T); assay type: biochemical

For `O=c1oc(Cl)c(Cl)c2ccccc12` [3,4-DCI], which “% Cleavage” value is on record?
The value was 89% and 54%.

With `CC(C)C[C@H](NC(=O)[C@@H](O)[C@H](N)Cc1ccccc1)C(=O)O` [Bestatin] as the molecule, how does the “% Cleavage” value read?
Its value is 81%.

`CCCC[C@@H](C=O)NC(=O)[C@H](CC(C)C)NC(=O)[C@H](CC(C)C)NC(C)=O` [Calpain inhibitor I] (Ac-Leu-Leu-[Nle]-aldehyde) was tested. Which “% Cleavage” value did it give?
Its value is 87%.

How did the “% Cleavage” value turn out when `CC(=O)N[C@@H](CC(C)C)C(=O)N[C@@H](CC(C)C)C(=O)N[C@H](C=O)CCCNC(=N)N` [Leupeptin] was run?
Its value is 85%.

For `CCN1C(=O)C=CC1=O` [NEM], which “% Cleavage” value is on record?
Its value is 30%.

And the “Effect on TcpJ peptidase activity (in words)” value (“Effect” below)?
Its value is “partial effects”.

How did the “% Cleavage” value turn out when `O=S(=O)(F)Cc1ccccc1` [PMSF] was run?
The value was 98% and 68%.

What about the “Effect” value of the same molecule?
Its value is “partial effects”.

How did the “% Cleavage” value turn out when `Cl.NCCc1ccc(S(=O)(=O)F)cc1` [Pefabloc SC] was run?
The value was 62% and 50%.

And the “Effect” value?
The value was “partial effects”.

How did the “% Cleavage” value turn out when `CC(C)CC(=O)N[C@H](C(=O)N[C@H](C(=O)N[C@@H](CC(C)C)[C@@H](O)CC(=O)N[C@@H](C)C(=O)N[C@@H](CC(C)C)[C@@H](O)CC(=O)O)C(C)C)C(C)C` [Pepstatin] (Isovaleryl-VV[Sta]A[Sta]-OH) was run?
Its value is 95% and 92% and 74%.

And the “Effect” value?
The value was “complete insensitivity; also recorded: completely resistant”.

How did the “% Cleavage” value turn out when `CC(C)C[C@H](NP(=O)(O)O[C@@H]1O[C@@H](C)[C@H](O)[C@@H](O)[C@H]1O)C(=O)N[C@@H](Cc1c[nH]c2ccccc12)C(=O)O` [Phosphoramidon] was run?
The value was 89%.

For Aprotinin, which “% Cleavage” value is on record?
The value was 100%.
